According to publication PMC7822874, “Chemoprotective antimalarials identified through quantitative high-throughput screening of Plasmodium blood and liver stage parasites” (Scientific Reports, 2021):
“And” between values parts separate entries of the source, which are not always exact repeats. Equal entries are not always repeated.

Tests used:
[1] = tested on: T1, Plasmodium falciparum Dd2-attB (parental line), asexual blood stages; test: microbe, parasite or virus in culture; design: replicate k of 3 (each line is one of three independent assays; the three lines of one compound and parasite line follow each other); conditions: n = 1; for Individual replicates / Log AC50 (M): 72 h; for AC50: Plasmodium falciparum, DD2, 72 h, read-out: Individual replicates / Log AC50 (converted)
T1 construct: Dd2-attB, the isogenic parental line
Method: (§1) The overexpression of the fumarate-dependent yeast DHODH confers resistance to compounds that inhibit the parasite mETC, or the parasite DHODH enzyme that depends on ubiquinone provided by the parasite mETC. Assays were performed in three independent assays on a subset of compounds, and differences between the Dd2-attB parental line and the ScDHODH transgenic line were analyzed using two-sided Student’s t-tests.

[2] = tested on: T2, Plasmodium falciparum Dd2-attB-ScDHODH (transgenic line expressing yeast DHODH), asexual blood stages; test: organism not typed; design: replicate k of 3 (each line is one of three independent assays; the three lines of one compound and parasite line follow each other)
T2 construct: Dd2-attB-ScDHODH, the transgenic line that expresses yeast DHODH
Method: as §1

[3] = 72 h; n = 1; read-out: Individual replicates / Log AC50 (converted)

SMILES	Individual replicates / Log AC50 (M) [1]	AC50 [1]	Individual replicates / Log AC50 (M) ([2]; 72 h, n = 1)	AC50 [2, 3]	Individual replicates / Log AC50 (M) ([2]; 72 h; n = 1)
COC(=O)c1ccc(O)c2ncc(N3CC[C@H](N)C3)cc12 [NCGC00241042-01]	-4.9986 Log AC50 (M) and -4.8486 Log AC50 (M)	17.8 µM	-4.7486 Log AC50 (M)	17.8 µM	
Oc1ccc(Nc2ccccc2F)c2cccnc12 [NCGC00184886-01]	-5.6486 Log AC50 (M) and -5.5486 Log AC50 (M)	3.56 µM	-5.5986 Log AC50 (M)	4.48 µM	
COC(=O)c1ccc(O)c2ncc(NC3CCNCC3)cc12 [NCGC00241038-01]	-5.1986 Log AC50 (M) and -5.0486 Log AC50 (M)	8.94 µM	-4.8986 Log AC50 (M) and -5.0986 Log AC50 (M)	7.1 µM	
O=C(Nc1ccccc1F)c1ccc(O)c2ncccc12 [NCGC00183800-01]	-5.1986 Log AC50 (M) and -5.2486 Log AC50 (M)	7.1 µM	-5.2986 Log AC50 (M) and -5.0486 Log AC50 (M)	5.64 µM	
Oc1ccc(-c2ccccc2F)c2cccnc12 [NCGC00184901-01]	-4.8486 Log AC50 (M) and -4.8986 Log AC50 (M)	15.9 µM	-4.8486 Log AC50 (M) and -4.7986 Log AC50 (M)	14.2 µM	
CCCCOC(=O)c1ccnc2cc(C(OCCN3CCCCC3)c3ccccc3Cl)sc12 (stereo not drawn) [NCGC00481505-01]	-5.2486 Log AC50 (M) and -5.0986 Log AC50 (M)	8.94 µM	-5.0486 Log AC50 (M) and -5.1486 Log AC50 (M)	14.2 µM	
COC(=O)c1ccnc2cc(C(OCCC3CCCN3C)c3ccccc3Cl)sc12 (stereo not drawn) [NCGC00481040-01]	-5.0986 Log AC50 (M) and -4.9486 Log AC50 (M)	8.94 µM	-4.8486 Log AC50 (M)	12.6 µM	
CN(C)CC1CCCN(C2CCN(C(=O)c3cccc(-c4cc(O)c5ncccc5c4)c3)CC2)C1 (stereo not drawn) [NCGC00247737-01]	-5.3986 Log AC50 (M) and -5.3486 Log AC50 (M)	5.64 µM	-5.4486 Log AC50 (M)	6.33 µM	
C/C(=N\NC(=S)N1CCN(c2ccccn2)CC1)c1ccccn1 [NCGC00386445-01]	-5.3486 Log AC50 (M)	4.48 µM		4.48 µM	-5.3486 Log AC50 (M)
Cc1ccccc1C(OCCN1CCCCC1)c1cc2nccc(B(O)O)c2s1 (stereo not drawn) [NCGC00481524-01]	-4.8486 Log AC50 (M) and -4.7986 Log AC50 (M)	14.2 µM		15.9 µM	-4.7986 Log AC50 (M)
Cn1cnc(-c2nccc3c(O)nc(OCCCC(F)(F)F)nc23)c1 [NCGC00381768-01]	-4.7486 Log AC50 (M) and -4.7986 Log AC50 (M)	15.9 µM		17.8 µM	-4.7486 Log AC50 (M)
CCOC(=O)c1ccnc(-n2ncc(C(OCCN3CCCCC3)c3ccccc3)c2-c2ccccc2Cl)c1 (stereo not drawn) [NCGC00484789-01]	-5.0486 Log AC50 (M) and -4.9986 Log AC50 (M)	8.94 µM	-5.0486 Log AC50 (M) and -4.9486 Log AC50 (M)	14.2 µM	
Cc1ccnc(NCc2ccc(O)c3ncccc23)c1 [NCGC00241032-01]	-4.8486 Log AC50 (M) and -4.7486 Log AC50 (M)	17.8 µM	-5.0486 Log AC50 (M)	14.2 µM	
COc1ccnc(NCc2ccc(O)c3ncccc23)c1 [NCGC00241023-01]	-4.7986 Log AC50 (M)	15.9 µM		12.6 µM	-4.8986 Log AC50 (M)
CCCCOC(=O)c1ccnc2cc(-c3nc4ccccc4[nH]3)sc12 [NCGC00482448-01]	-5.7486 Log AC50 (M) and -5.6986 Log AC50 (M)	2 µM	-5.5986 Log AC50 (M) and -5.6986 Log AC50 (M)	2 µM	
O=C(/C=C/c1cn(CC(O)CN2CCCCCC2)c2ccccc12)c1ccc(Br)cc1 (stereo not drawn) [NCGC00114921-03]	-5.2486 Log AC50 (M) and -5.0986 Log AC50 (M)	4.48 µM	-5.0486 Log AC50 (M) and -5.1986 Log AC50 (M)	4.48 µM	
Cc1cccc(N2CCN(C(=O)Cn3ncc4c3-c3ccccc3OC4)CC2)c1C [NCGC00112661-03]	-4.9486 Log AC50 (M) and -4.7486 Log AC50 (M)		-4.8986 Log AC50 (M) and -5.0986 Log AC50 (M)		
COc1cc(CN2CCc3nc(N4CCN(c5ncccn5)CC4)ncc3C2)cc(OC)c1OC [NCGC00131437-02]	-5.3486 Log AC50 (M) and -5.1486 Log AC50 (M)	5.64 µM	-5.1486 Log AC50 (M) and -5.0986 Log AC50 (M)	7.1 µM	

SMILES	Individual replicates / Log AC50 (M) [1]	AC50 [1]	Individual replicates / Log AC50 (M) ([2]; 72 h, n = 1)	AC50 [2, 3]	Individual replicates / Log AC50 (M) ([2]; 72 h; n = 1)
Oc1ccc(CNCc2ccccc2F)c2cccnc12 [NCGC00184908-01]	-5.3986 Log AC50 (M) and -5.0486 Log AC50 (M) and -5.1986 Log AC50 (M)		-4.7486 Log AC50 (M) and -5.1486 Log AC50 (M) (2×)		
CN(C)CCCCNC(=O)c1cccc(-c2cc(O)c3ncccc3c2)c1 [NCGC00244528-01]	-4.8986 Log AC50 (M) and -4.8486 Log AC50 (M)	17.8 µM	-4.7486 Log AC50 (M)	15.9 µM	
CN(C)CC1CCN(C2CCN(C(=O)c3cccc(-c4cc(O)c5ncccc5c4)c3)CC2)CC1 [NCGC00247736-01]	-5.3486 Log AC50 (M) and -4.8486 Log AC50 (M) and -5.1486 Log AC50 (M)		-4.7986 Log AC50 (M) and -5.0486 Log AC50 (M)		
CN(C)C(=O)c1cccc(-c2cc(O)c3ncccc3c2)c1 [NCGC00244525-01]	-5.2486 Log AC50 (M) and -5.1486 Log AC50 (M)	7.1 µM	-5.1986 Log AC50 (M) and -5.0986 Log AC50 (M)	6.33 µM	
Cc1ccc(NCc2ccc(O)c3ncccc23)c(F)c1 [NCGC00184895-01]	-4.7986 Log AC50 (M)	17.8 µM	-4.7486 Log AC50 (M)	15.9 µM	
O=C(NCCCCCN1CCOCC1)c1cccc(-c2cc(O)c3ncccc3c2)c1 [NCGC00249387-01]	-4.9986 Log AC50 (M)	7.1 µM	-4.6986 Log AC50 (M) and -5.0486 Log AC50 (M) and -4.7986 Log AC50 (M)		
COC(=O)c1ccc(O)c2ncc(-c3ccc(C(=O)N4CCNCC4)cc3)cc12 [NCGC00189509-01]	-5.0486 Log AC50 (M) and -5.1486 Log AC50 (M)	5.64 µM	-4.9486 Log AC50 (M) and -5.0986 Log AC50 (M)	5.64 µM	
O=C(NCCCN1CCCCCC1)c1cccc(-c2cc(O)c3ncccc3c2)c1 [NCGC00247760-01]	-4.8986 Log AC50 (M) and -4.7486 Log AC50 (M)	20 µM		15.9 µM	
O=C(O)c1ccc(O)c2ncc(NC3CCNC3)cc12 (stereo not drawn) [NCGC00241039-01]	-4.7486 Log AC50 (M) and -4.7986 Log AC50 (M)	20 µM	-4.8486 Log AC50 (M) and -4.6486 Log AC50 (M)	20 µM	
Oc1ccc(NCc2ccccc2F)c2cccnc12 [NCGC00184883-01]	-5.0986 Log AC50 (M) and -5.0486 Log AC50 (M)	12.6 µM	-5.0986 Log AC50 (M)	12.6 µM	
CC(C)OC(=O)c1ccnc2cc(C(OCCN3CCCCC3)c3cccc(N)c3)sc12 (stereo not drawn) [NCGC00488684-01]	-5.1986 Log AC50 (M) and -5.1486 Log AC50 (M)	7.1 µM	-5.0986 Log AC50 (M)	12.6 µM	
CC(Cc1cnccn1)Nc1cnc2c(O)ccc(C(=O)O)c2c1 (stereo not drawn) [NCGC00241766-01]	-4.8486 Log AC50 (M)	15.9 µM		7.97 µM	
Cc1ccc(C(CCN2CCCCC2)c2cc3cccc(C(=O)O)c3[nH]2)cc1 (stereo not drawn) [NCGC00389137-01]	-5.5486 Log AC50 (M) and -5.3986 Log AC50 (M) and -5.1486 Log AC50 (M)		-5.3486 Log AC50 (M) and -5.0486 Log AC50 (M)		
CCOc1ccc(NC(=O)c2c(NCc3cccnc3)sc3c2CCCC3)cc1 [NCGC00140582-02]	-5.3486 Log AC50 (M) and -5.2986 Log AC50 (M)	5.64 µM	-5.2486 Log AC50 (M) and -5.1486 Log AC50 (M)	6.33 µM	
O=C(O)c1ccc(O)c2ncc(N3CCCNCC3)cc12 [NCGC00241047-01]	-4.8986 Log AC50 (M) and -4.8486 Log AC50 (M)	15.9 µM	-4.7986 Log AC50 (M)	15.9 µM	
Oc1ccc(CNc2ccccn2)c2cccnc12 [NCGC00184898-01]	-4.7486 Log AC50 (M) and -4.6986 Log AC50 (M)	17.8 µM	-4.7486 Log AC50 (M)	14.2 µM	
N=C(N)c1cccc(-c2cnc3c(O)ccc(C(=O)O)c3c2)c1 [NCGC00241054-02]	-4.8986 Log AC50 (M) and -4.9486 Log AC50 (M)	10 µM	-4.7486 Log AC50 (M) and -4.8486 Log AC50 (M)	14.2 µM	
